Assays:
Assay in all cases: relative viability (nuclei count vs DMSO), 5 days (fraction); higher = more cells survive
[1] = compound: C1/C(=C\C2=CC=CS2)/C(=O)/C(=C/C3=CC=CS3)/C1 + NC(=O)Nc1cc(-c2cccc(F)c2)sc1C(=O)N[C@H]1CCCNC1 [AZD7762] (partner 0.2 µM)
In short: (§1)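 Dosing by pin tool came one day after lung cancer cell lines were seeded in 1536-well plates, using either one drug or a fixed anchor-drug dose plus five library-drug doses (not always all listed) in √10 steps. After 5 days, nuclei were counted on 4× images. Relative viability is treated-well nuclei count divided by vehicle-well nuclei count, and values are medians of duplicate plates.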

[2] = compound: C1/C(=C\C2=CC=CS2)/C(=O)/C(=C/C3=CC=CS3)/C1 + CC1(C)CCC(c2ccc(Cl)cc2)=C(CN2CCN(c3ccc(C(=O)NS(=O)(=O)c4ccc(N[C@H](CCN5CCOCC5)CSc5ccccc5)c(S(=O)(=O)C(F)(F)F)c4)cc3)CC2)C1 [Navitoclax] (partner 0.5 µM)
In short: as §1

[3] = compound: C[C@]12O[C@H](C[C@]1(O)CO)n1c3ccccc3c3c4c(c5c6ccccc6n2c5c31)CNC4=O [Lestaurtinib] + CC(=O)c1c(C)c2cnc(Nc3ccc(N4CCNCC4)cn3)nc2n(C2CCCC2)c1=O [Palbociclib] (partner 0.5 µM)
In short: as §1

[4] = compound: C1=CC(=CC=C1C2=CC(=C(S2)NC(=O)N)C(=O)N)F [TPCA-1] + CC(=O)c1c(C)c2cnc(Nc3ccc(N4CCNCC4)cn3)nc2n(C2CCCC2)c1=O [Palbociclib] (partner 0.5 µM)
In short: as §1

| Cell Line | relative viability ([1]; first compound 0.2 µM) | relative viability ([1]; first compound 0.6325 µM) | relative viability ([1]; first compound 2 µM) | relative viability ([1]; first compound 6.325 µM) | relative viability ([1]; first compound 20 µM) | relative viability ([2]; first compound 0.2 µM) | relative viability ([2]; first compound 0.6325 µM) | relative viability ([2]; first compound 2 µM) | relative viability ([2]; first compound 6.325 µM) | relative viability ([2]; first compound 20 µM) | relative viability ([3]; first compound 0.005 µM) | relative viability ([3]; first compound 0.01581 µM) | relative viability ([3]; first compound 0.05 µM) | relative viability ([3]; first compound 0.1581 µM) | relative viability ([3]; first compound 0.5 µM) | relative viability ([4]; first compound 0.04 µM) | relative viability ([4]; first compound 0.1265 µM) | relative viability ([4]; first compound 0.4 µM) | relative viability ([4]; first compound 1.265 µM) | relative viability ([4]; first compound 4 µM) |
| --- | --- | --- | --- | --- | --- | --- | --- | --- | --- | --- | --- | --- | --- | --- | --- | --- | --- | --- | --- | --- |
| NCI-H1975 | 0.826 | 0.801 | 0.656 | 0.618 | 0.763 | 1.09 | 1.19 | 1.04 | 0.912 | 1.08 | 0.617 | 0.632 | 0.406 | 0.347 | 0.25 | 0.593 | 0.532 | 0.613 | 0.552 | 0.142 |
| HCC-44 | 1.03 | 1.03 | 0.857 | 0.84 | 1.03 | 0.903 | 0.987 | 0.935 | 0.832 | 0.895 | 0.958 | 1 | 1.04 | 1.1 | 0.732 | 0.987 | 0.902 | 0.995 | 0.995 | 1.03 |
| LOU-NH91 | 0.744 | 0.837 | 0.834 | 0.697 | 0.745 | 0.726 | 0.744 | 0.724 | 0.581 | 0.723 | 0.567 | 0.524 | 0.586 | 0.558 | 0.522 | 0.539 | 0.51 | 0.471 | 0.524 | 0.532 |
| NCI-H441 | 1.35 | 1.22 | 1.29 | 1.01 | 1.13 | 0.779 | 0.769 | 0.523 | 0.527 | 0.572 | 0.192 | 0.238 | 0.225 | 0.199 | 0.207 | 0.186 | 0.183 | 0.188 | 0.239 | 0.162 |
| NCI-H647 | 0.504 | 0.471 | 0.446 | 0.445 | 0.592 | 1.15 | 1.15 | 1.1 | 1.01 | 1.17 | 0.382 | 0.201 | 0.227 | 0.247 | 0.164 | 0.47 | 0.4 | 0.342 | 0.38 | 0.188 |
| NCI-H1915 | 0.73 | 0.67 | 0.689 | 0.642 | 0.677 | 0.788 | 0.758 | 0.818 | 0.754 | 0.818 | 0.564 | 0.719 | 0.481 | 0.323 | 0.231 | 0.568 | 0.475 | 0.515 | 0.516 | 0.465 |
| NCI-H1734 | 0.591 | 0.57 | 0.551 | 0.415 | 0.523 | 0.837 | 0.908 | 0.914 | 0.812 | 0.866 | 0.352 | 0.255 | 0.338 | 0.331 | 0.197 | 0.352 | 0.313 | 0.388 | 0.363 | 0.307 |
| NCI-H1993 | 0.783 | 0.747 | 0.958 | 0.62 | 0.499 | 1.04 | 0.877 | 0.971 | 0.693 | 0.818 | 0.689 | 0.27 | 0.717 | 0.569 | 0.411 | 0.726 | 0.531 | 0.645 | 0.717 | 0.534 |
